From paper PMC2726771 (The Journal of neuroscience : the official journal of the …, 2009)

How the values were obtained:
Assay type in all cases: cell-based
α3β2S148C nAChR = α3β2S148C nAChR (Rattus norvegicus, UniProt P04757+P12390, S174C); settings: Hill coefficient
α3β2 wt nAChR = α3β2 wt nAChR (Rattus norvegicus, UniProt P04757+P12390); settings: Hill coefficient
α3β2T150C nAChR = α3β2T150C nAChR (Rattus norvegicus, UniProt P04757+P12390, T176C)
α3A106Cβ2 nAChR = α3A106Cβ2 nAChR (Rattus norvegicus, UniProt P04757+P12390, A133C); settings: Hill coefficient
α3A106Cβ2 nAChR, sequence (P04757 26-499 A133C): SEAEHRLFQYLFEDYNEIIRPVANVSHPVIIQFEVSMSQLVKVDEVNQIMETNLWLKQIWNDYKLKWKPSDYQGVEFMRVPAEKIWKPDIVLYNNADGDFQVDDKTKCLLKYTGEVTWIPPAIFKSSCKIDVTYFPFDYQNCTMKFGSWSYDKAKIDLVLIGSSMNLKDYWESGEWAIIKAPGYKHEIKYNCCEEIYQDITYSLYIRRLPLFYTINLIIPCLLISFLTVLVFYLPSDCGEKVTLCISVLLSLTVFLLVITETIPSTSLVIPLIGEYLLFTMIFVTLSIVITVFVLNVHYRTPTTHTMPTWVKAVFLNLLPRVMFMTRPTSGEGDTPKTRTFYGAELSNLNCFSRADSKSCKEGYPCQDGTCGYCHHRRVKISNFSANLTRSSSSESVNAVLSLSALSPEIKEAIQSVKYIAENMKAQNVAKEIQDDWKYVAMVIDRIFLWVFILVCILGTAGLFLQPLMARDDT
α3A106Cβ2 nAChR, sequence (P12390 25-500): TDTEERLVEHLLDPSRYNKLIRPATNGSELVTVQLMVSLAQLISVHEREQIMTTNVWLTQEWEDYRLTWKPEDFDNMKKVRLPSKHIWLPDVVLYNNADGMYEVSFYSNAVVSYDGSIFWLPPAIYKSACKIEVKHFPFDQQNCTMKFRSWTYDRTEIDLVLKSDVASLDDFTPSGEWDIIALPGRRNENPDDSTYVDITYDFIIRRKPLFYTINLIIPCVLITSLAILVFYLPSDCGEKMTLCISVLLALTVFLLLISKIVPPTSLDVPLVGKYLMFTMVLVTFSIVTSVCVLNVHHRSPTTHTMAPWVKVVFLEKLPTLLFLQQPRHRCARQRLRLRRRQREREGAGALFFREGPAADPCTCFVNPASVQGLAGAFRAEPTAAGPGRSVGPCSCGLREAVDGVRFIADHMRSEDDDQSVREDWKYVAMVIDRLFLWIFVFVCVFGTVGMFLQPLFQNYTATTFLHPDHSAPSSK

α3T115Cβ2 nAChR = α3T115Cβ2 nAChR (Rattus norvegicus, UniProt P04757+P12390, T142C); settings: Hill coefficient
α3T115Cβ2 nAChR, sequence (P04757 26-499 T142C): as the sequence (P04757 26-499 A133C) above, with C108A, T117C counted along it
α3T115Cβ2 nAChR, sequence (P12390 25-500): as the sequence (P12390 25-500) above

α3β2S192C nAChR = α3β2S192C nAChR (Rattus norvegicus, UniProt P04757+P12390, S218C); settings: Hill coefficient
α3β2S192C nAChR, sequence (P04757 26-499): as the sequence (P04757 26-499 A133C) above, with C108A counted along it
α3β2S192C nAChR, sequence (P12390 25-500 S218C): as the sequence (P12390 25-500) above, with S194C counted along it

α3S161Cβ2 nAChR = α3S161Cβ2 nAChR (Rattus norvegicus, UniProt P04757+P12390, S188C); settings: Hill coefficient
α3S161Cβ2 nAChR, sequence (P04757 26-499 S188C): as the sequence (P04757 26-499 A133C) above, with C108A, S163C counted along it
α3S161Cβ2 nAChR, sequence (P12390 25-500, stated change not applied): as the sequence (P12390 25-500) above

α3β2T193C nAChR = α3β2T193C nAChR (Rattus norvegicus, UniProt P04757+P12390, T219C); settings: Hill coefficient
α3β2T193C nAChR, sequence (P04757 26-499): as the sequence (P04757 26-499 A133C) above, with C108A counted along it
α3β2T193C nAChR, sequence (P12390 25-500 T219C): as the sequence (P12390 25-500) above, with T195C counted along it

α3β2T150C nAChR, sequence (P04757 26-499): as the sequence (P04757 26-499 A133C) above, with C108A counted along it
α3β2T150C nAChR, sequence (P12390 25-500 T176C): as the sequence (P12390 25-500) above, with T152C counted along it
α3β2 wt nAChR, sequence (P04757 26-499): as the sequence (P04757 26-499 A133C) above, with C108A counted along it
α3β2 wt nAChR, sequence (P12390 25-500): as the sequence (P12390 25-500) above
α3β2S148C nAChR, sequence (P04757 26-499): as the sequence (P04757 26-499 A133C) above, with C108A counted along it
α3β2S148C nAChR, sequence (P12390 25-500 S174C): as the sequence (P12390 25-500) above, with S150C counted along it

Structure (SMILES): CC(=O)OCC[N+](C)(C)C [ACh]
- ACh Response nH (α3β2S148C nAChR): 0.79 ± 0.08
- ACh Response nH (α3β2 wt nAChR): 0.82 ± 0.06
- ACh nH, +Mor data set, pre-treatment (α3β2T150C nAChR; ACh + 10 μM Mor): 1.13 ± 0.24
- ACh nH, +Mor data set, post-treatment (α3β2T150C nAChR; ACh + 10 μM Mor, after 100 μM MTSET + 200 μM ACh): 0.98 ± 0.02
- ACh Emax, +Mor data set, pre-treatment (α3β2T150C nAChR; ACh + 10 μM Mor, normalized to ACh response at 1000 μM): 1.33 ± 0.05
- ACh Response nH (α3β2T150C nAChR; Hill coefficient, pre-treatment in Fig. 4): 0.84 ± 0.06
- ACh nH post-treatment (α3β2T150C nAChR; after 100 μM MTSET + 200 μM ACh): 0.79 ± 0.11
- ACh Emax post-treatment (α3β2T150C nAChR; after 100 μM MTSET + 200 μM ACh, normalized to ACh response at 1000 μM): 0.26 ± 0.01
- ACh Emax pre-treatment (α3β2T150C nAChR; normalized to ACh response at 1000 μM): 1.00
- ACh Response nH (α3A106Cβ2 nAChR): 0.64 ± 0.04
- ACh Response nH (α3T115Cβ2 nAChR): 0.96 ± 0.09
- ACh Response nH (α3β2S192C nAChR): 0.57 ± 0.05
- ACh Response nH (α3S161Cβ2 nAChR): 0.77 ± 0.07
- ACh Response nH (α3β2T193C nAChR): 0.74 ± 0.07

Structure (SMILES): C[N+](C)(C)CCOC(=O)CBr [BrACh]
- reduction of maximum Mor-evoked current (efficacy) (α3β2T150C nAChR; after 100 μM reagent, four 30-sec doses): very little effect
